Assay results from patent US11446384B2, “Agent for targeting heart comprising tannic acid” (Korea Research Institute of Chemical Technology, priority 2018, dated 2022).

Key:
[1] = Size of tannylated SP (particle size analyzer); type: physicochemical; settings: [SP]/[TA] ratio of 20 or 10
Experimental: The mixed solutions with the [SP]/[TA] ratios of 20, 10, 5, 1 and 0.5 prepared to produce tannylated SP in Example 2 were observed by naked eye. Then, the size of tannylated SP ([SP]/[TA] ratio=20 and 10, volume=1 mL) was analyzed using a particle size analyzer (Zetasizer nano-ZS, Malvern instrument, UK).

[2] = test system: myocardial ischemia reperfusion (MIR); experiment: Infarct size (TTC staining) in MIR animal model after intravenous bFGF; type: in vivo, rats (SD rats); settings: MIR rats, 28 days after injection
Experimental: Particularly, rats (SD rats, 8 weeks old, male, 230-270 g) were anesthetized with a mixture of isoflurane (3 cc min^-1), Rompun, xylazine (1 mg kg^-1) and oxygen in an induction chamber. Then, the rats were intubated and a mixture of isoflurane and oxygen was allowed to flow at a rate of 1 cc min^-1. The rat heart was exposed through left thoracotomy, followed by occulusion for 10 minutes. The suture line was quickly loosened to resume blood flow through the left anterior descending artery (LAD). […] Upon completion of the hemodynamic evaluation, the heart was separated and immersed in warm PBS ( 37° C.) to eliminate blood residues. Then, the heart was quickly frozen at -20° C., and the frozen heart was sliced lengthwise approximately 2 mm away the apex. The slice was placed on a cell culture dish, which was treated with 1% TTC (triphenyltetrazolium chloride) dissolved in PBS at 37° C. for 15 minutes. After staining, the heart slice was photographed with a scanner. Then, live tissues stained with red and necrotic tissues non-stained and thus presented as white were distinguished. The size of the infarct area was measured digitally using ImageJ software, and the results are presented as %.

[3] = test system: myocardial ischemia reperfusion (MIR); experiment: In vivo hemodynamic evaluation of left ventricular function in MIR animal model; parameters: species or system rats (SD rats); settings: MIR rats; for EDP / EDV / ESP / ESV / Ea / HR / SW / Tau: 5 μg i.v., 28 days
Experimental: Particularly, rats (SD rats, 8 weeks old, male, 230-270 g) were anesthetized with a mixture of isoflurane (3 cc min^-1), Rompun, xylazine (1 mg kg^-1) and oxygen in an induction chamber. Then, the rats were intubated and a mixture of isoflurane and oxygen was allowed to flow at a rate of 1 cc min^-1. The rat heart was exposed through left thoracotomy, followed by occulusion for 10 minutes. The suture line was quickly loosened to resume blood flow through the left anterior descending artery (LAD). […] 28 days after the injection, in vivo hemodynamic evaluation was performed to investigate the left ventricular function using […]500 (Transonic, USA) outputting data to LabScribe data collection software (iWorx/CB Sciences, USA).

elastin [4] = target: T1, elastin (Homo sapiens, UniProt P15502); experiment: Turbidimetry binding analysis of TA and elastin; settings: elastin 0.24 mg/mL, TA 17 mg/mL, 1:1
T1 sequence (P15502 27-786): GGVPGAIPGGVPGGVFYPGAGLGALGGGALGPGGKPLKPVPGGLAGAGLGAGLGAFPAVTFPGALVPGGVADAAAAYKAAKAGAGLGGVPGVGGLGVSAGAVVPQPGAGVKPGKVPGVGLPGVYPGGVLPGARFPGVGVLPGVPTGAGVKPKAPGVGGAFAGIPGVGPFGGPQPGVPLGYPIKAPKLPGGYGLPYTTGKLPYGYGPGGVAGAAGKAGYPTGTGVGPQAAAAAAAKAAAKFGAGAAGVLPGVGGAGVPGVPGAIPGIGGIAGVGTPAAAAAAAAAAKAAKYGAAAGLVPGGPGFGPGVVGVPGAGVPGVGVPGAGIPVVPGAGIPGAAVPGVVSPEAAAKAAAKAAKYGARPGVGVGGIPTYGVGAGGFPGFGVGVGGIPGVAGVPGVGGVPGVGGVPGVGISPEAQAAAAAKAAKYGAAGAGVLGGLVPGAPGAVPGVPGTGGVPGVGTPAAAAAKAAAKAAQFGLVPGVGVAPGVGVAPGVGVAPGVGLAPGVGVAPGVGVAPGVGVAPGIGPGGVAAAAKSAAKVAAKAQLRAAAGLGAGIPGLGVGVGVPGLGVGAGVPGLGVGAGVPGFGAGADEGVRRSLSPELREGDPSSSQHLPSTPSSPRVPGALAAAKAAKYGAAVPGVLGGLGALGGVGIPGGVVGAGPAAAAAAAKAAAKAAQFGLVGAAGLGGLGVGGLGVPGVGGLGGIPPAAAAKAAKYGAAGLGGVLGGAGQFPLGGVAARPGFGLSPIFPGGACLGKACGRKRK
Experimental: (§1) For turbidity analysis, each solution of elastin, type I collagen, HS and HA was prepared by diluting them in PBS at the concentration of 0.24 mg/mL. TA (17 mg/mL) was added to each solution at the volume ratio of 1:1, followed by mixing vigorously. Turbidity was measured at 600 nm using UV/vis spectrometer (HP8453, Hewlett-Packard, USA).

type I collagen [5] = target: T2, type I collagen (Homo sapiens, UniProt P02452+P08123); experiment: Turbidimetry binding analysis of TA and type I collagen; settings: type I collagen 0.24 mg/mL, TA 17 mg/mL, 1:1
T2 sequence (P02452 162-1218 limits assumed): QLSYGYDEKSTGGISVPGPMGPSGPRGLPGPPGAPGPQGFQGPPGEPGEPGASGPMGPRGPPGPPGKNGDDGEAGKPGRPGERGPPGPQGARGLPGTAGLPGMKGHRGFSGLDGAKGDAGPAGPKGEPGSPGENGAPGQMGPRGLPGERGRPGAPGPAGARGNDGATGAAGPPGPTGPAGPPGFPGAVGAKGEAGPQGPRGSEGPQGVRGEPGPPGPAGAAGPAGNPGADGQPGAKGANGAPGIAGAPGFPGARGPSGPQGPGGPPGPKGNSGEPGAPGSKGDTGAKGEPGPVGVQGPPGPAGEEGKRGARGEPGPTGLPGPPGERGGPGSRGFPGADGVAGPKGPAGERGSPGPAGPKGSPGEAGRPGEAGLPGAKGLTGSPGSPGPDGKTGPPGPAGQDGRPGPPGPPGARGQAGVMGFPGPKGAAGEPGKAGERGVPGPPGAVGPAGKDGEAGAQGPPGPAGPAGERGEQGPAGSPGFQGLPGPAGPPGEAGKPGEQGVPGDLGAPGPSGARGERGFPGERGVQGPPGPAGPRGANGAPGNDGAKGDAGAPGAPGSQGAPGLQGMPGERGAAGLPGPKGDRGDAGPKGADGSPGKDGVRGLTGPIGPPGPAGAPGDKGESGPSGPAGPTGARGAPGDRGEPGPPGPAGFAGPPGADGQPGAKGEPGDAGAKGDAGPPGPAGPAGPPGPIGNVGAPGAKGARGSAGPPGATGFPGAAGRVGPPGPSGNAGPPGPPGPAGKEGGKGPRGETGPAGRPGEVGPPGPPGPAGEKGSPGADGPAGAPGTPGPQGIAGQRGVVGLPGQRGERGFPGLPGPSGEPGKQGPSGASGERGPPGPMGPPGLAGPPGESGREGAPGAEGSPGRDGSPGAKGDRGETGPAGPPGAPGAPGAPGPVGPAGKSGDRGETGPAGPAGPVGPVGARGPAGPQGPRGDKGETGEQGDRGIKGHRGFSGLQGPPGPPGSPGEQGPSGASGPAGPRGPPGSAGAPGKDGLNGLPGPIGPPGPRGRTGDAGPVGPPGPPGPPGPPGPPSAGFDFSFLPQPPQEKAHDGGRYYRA
T2 sequence (P08123 80-1119 limits assumed): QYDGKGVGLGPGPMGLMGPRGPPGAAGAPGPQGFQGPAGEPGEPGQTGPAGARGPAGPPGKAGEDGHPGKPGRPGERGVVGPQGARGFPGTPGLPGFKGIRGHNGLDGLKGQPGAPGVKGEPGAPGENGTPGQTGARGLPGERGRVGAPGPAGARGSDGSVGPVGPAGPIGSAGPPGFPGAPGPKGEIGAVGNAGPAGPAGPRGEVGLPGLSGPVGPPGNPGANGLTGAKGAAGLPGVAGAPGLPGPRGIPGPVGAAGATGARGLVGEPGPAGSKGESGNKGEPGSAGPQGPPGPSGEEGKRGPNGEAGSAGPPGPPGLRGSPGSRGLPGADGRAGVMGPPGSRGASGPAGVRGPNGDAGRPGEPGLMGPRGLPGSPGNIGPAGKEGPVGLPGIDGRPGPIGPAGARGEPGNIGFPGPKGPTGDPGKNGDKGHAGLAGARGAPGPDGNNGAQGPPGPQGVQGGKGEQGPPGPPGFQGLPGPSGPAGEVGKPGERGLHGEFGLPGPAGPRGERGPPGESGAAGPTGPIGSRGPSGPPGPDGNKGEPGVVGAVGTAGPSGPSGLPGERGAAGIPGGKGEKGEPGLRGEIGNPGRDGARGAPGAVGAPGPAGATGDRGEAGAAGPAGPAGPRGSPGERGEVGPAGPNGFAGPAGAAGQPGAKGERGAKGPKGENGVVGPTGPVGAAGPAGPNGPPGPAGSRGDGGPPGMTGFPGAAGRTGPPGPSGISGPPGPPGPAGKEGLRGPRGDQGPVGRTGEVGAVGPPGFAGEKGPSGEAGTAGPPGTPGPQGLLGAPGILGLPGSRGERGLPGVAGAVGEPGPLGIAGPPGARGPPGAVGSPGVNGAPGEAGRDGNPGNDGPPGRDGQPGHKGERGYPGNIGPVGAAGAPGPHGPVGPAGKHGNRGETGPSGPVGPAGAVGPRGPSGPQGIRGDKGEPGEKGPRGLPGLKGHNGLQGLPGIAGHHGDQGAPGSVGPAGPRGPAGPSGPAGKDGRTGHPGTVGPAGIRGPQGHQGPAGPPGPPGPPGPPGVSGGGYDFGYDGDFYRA
Experimental: as §1

[6] = Turbidimetry binding analysis of TA and heparin sulfate; settings: HS 0.24 mg/mL, TA 17 mg/mL, 1:1
Experimental: as §1

[7] = Turbidimetry binding analysis of TA and hyaluronic acid; settings: HA 0.24 mg/mL, TA 17 mg/mL, 1:1
Experimental: as §1

type I collagen [8] = target: T2, type I collagen; experiment: SPR binding analysis of TA and type I collagen; settings: surface adsorbed with collagen, TA 2 mg/mL
Experimental: (§2) For SPR analysis, each solution of elastin, type I collagen (10 μg/mL) and TA (2 mg/mL) was prepared by diluting them in PBS (pH 7.3). All the solutions were filtered with 0.2 μm microfilter (Millipore, USA). Each protein (elastin or type I collagen) was adhered on Biacore gold (Au) sensor chip for 600 seconds. The chip was washed for 10 minutes to eliminate such samples attached weakly thereon. SPR analysis was performed at the flow rate of 10 μl/min using PBS as a flow buffer.

elastin [9] = target: T1, elastin; experiment: SPR binding analysis of TA and elastin; settings: surface adsorbed with elastin, TA 2 mg/mL
Experimental: as §2

elastin [10] = target: T1, elastin; experiment: ITC binding analysis of TA and elastin
Experimental: Elastin (210 μg/mL) and TA (2.5 mg/mL) solutions were used for ITC analysis. Elastin was placed in a sample cell. The TA solution was placed in a syringe, which was injected to the elastin in the sample cell (250 μl) (50 sequential injections, 5 μl per injection) for titration (with stirring at 350 rpm). Time interval was set at 180 seconds for subsequent injection, and raw data was processed using Microcal Origin (Microcal Software, Northampton, USA).

[11] = 5 μg i.v., non-treated control 51%

tannylated SP: substance P (SEQ ID NO: 2, RPKPQQFFGLM) mixed with tannic acid solution at [SP]/[TA] ratios 0.5-20
size of complex [1]: up to 1 μm

tannylated bFGF: bFGF (SEQ ID NO: 1) mixed with TA solution, stoichiometric molar ratio [TA]/[bFGF] of 143
infarct size [2, 11]: approximately 16%
EDP [3]: 9.8 ± 1.6 mmHg
EDV [3]: 295.9 ± 23.3 µL
ESP [3]: 103.8 ± 4.6 mmHg
ESV [3]: 133.9 ± 19.5 µL
Ea [3]: 0.77 ± 0.14 mmHg/μL
HR [3]: 322.7 ± 18.0 bpm
SW [3]: 3.00 ± 0.53 mmHg · mL · kg
Tau [3]: 11.7 ± 1.1 ms
hemodynamic functional values (left ventricular pressure, stroke volume, cardiac output, ventricular contractility index) ([3]; i.v., 28 days after injection, versus sham group): recovered all the hemodynamic functional values

O=C(OC[C@H]1O[C@@H](OC(=O)c2cc(O)c(O)c(OC(=O)c3cc(O)c(O)c(O)c3)c2)[C@H](OC(=O)c2cc(O)c(O)c(OC(=O)c3cc(O)c(O)c(O)c3)c2)[C@@H](OC(=O)c2cc(O)c(O)c(OC(=O)c3cc(O)c(O)c(O)c3)c2)[C@@H]1OC(=O)c1cc(O)c(O)c(OC(=O)c2cc(O)c(O)c(O)c2)c1)c1cc(O)c(O)c(OC(=O)c2cc(O)c(O)c(O)c2)c1 [tannic acid]
turbidity (A600) of elastin solution after addition of TA (elastin [4]): 1.219±0.022
turbidity (A600) of collagen solution after addition of TA (type I collagen [5]): 0.173±0.022
turbidity change of HS solution after addition of TA [6]: no turbidity change was observed
turbidity change of HA solution after addition of TA [7]: no turbidity change was observed
SPR ΔRU value (type I collagen [8]): 793
SPR ΔRU value (elastin [9]): 1319
[TA]/[elastin] ratio of first step (TA conjugated with elastin inter-molecularly) (elastin [10]; ITC): up to 20
[TA]/[elastin] ratio of second step (inter-TA/elastin complexes conjugated each other) (elastin [10]; ITC): ≥ 30
ITC thermodynamics of binding between TA and elastin (elastin [10]; elastin 210 μg/mL, TA […]): exothermic interaction

bFGF: basic fibroblast growth factor, SEQ ID NO: 1
infarct size [2, 11]: 31%
infarct size ([2]; 25 μg i.v.): not much different from when 5 μg of bFGF was administered
EDP [3]: 8.5 ± 0.9 mmHg
EDV [3]: 365.3 ± 27.5 µL
ESP [3]: 85.3 ± 1.7 mmHg
ESV [3]: 254.5 ± 13.8 µL
Ea [3]: 0.86 ± 0.12 mmHg/μL
HR [3]: 316.5 ± 12.9 bpm
SW [3]: 1.51 ± 0.14 mmHg · mL · kg
Tau [3]: 11.7 ± 0.5 ms
